Test results from PMC6271941, “Ruthenium^II(η^6-arene) Complexes of Thiourea Derivatives: Synthesis, Characterization and Urease Inhibition” (Molecules, 2014).

target: jack bean urease (Canavalia ensiformis, UniProt P07374); experiment: biochemical; assay type: biochemical; conditions: not given
Protocol: The urease inhibitory activity was measured according to a reported method with slight modifications. The enzyme (5 U/mL; 10 μL) and test compound in buffer (10 μL) were sequentially added to 40 μL of buffer (pH 8.2) containing 100 mM urea, 1 mM EDTA, 0.01 M K2HPO4 and 0.01 M […]. The mixture was pre-incubated for 30 min at 37 °C. The reaction was initiated by the addition of 40 μL of phenol reagent (1%, w/v phenol, 0.005%, w/v sodium nitroprusside) and 40 μL of alkali reagent (0.5%, w/v NaOH, 0.1% active chloride NaOCl) to each well. After 10 min of incubation at 37 °C, the absorbance was measured at 630 nm using a Microplate reader (Bio-Tek ELx 800^TM, Instruments, Inc. USA). All the experiments were carried out with their respective controls in triplicate. Thiourea (0.1 mM well^−1) was used as a positive control.

Sequence of jack bean urease (P07374 whole entry, looked up): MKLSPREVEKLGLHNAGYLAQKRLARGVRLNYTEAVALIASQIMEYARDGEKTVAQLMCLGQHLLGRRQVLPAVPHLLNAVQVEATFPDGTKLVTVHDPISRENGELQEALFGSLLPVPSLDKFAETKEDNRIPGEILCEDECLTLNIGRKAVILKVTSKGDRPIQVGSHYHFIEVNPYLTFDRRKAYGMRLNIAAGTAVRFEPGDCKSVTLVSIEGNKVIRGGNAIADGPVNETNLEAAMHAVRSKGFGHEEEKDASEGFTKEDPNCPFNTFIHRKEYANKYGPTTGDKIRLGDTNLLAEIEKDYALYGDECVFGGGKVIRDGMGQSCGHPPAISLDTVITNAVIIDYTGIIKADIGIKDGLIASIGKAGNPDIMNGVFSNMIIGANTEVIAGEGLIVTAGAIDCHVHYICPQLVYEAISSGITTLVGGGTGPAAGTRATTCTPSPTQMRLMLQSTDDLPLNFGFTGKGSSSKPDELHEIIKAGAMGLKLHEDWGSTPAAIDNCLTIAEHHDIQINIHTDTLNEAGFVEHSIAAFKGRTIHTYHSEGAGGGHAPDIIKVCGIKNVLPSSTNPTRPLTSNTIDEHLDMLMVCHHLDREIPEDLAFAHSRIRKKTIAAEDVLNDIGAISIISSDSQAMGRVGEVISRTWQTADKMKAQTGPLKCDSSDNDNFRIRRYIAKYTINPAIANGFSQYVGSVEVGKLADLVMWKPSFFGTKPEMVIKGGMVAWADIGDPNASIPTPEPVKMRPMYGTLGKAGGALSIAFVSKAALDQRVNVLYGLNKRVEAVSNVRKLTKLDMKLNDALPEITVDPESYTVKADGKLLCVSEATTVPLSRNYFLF

| Molecule | IC50 |
| --- | --- |
| S=C1NCCN1 [I, imidazolidine-2-thione] | 232 ± 27 µM |
| S=C1NCCCN1 [II, 1,3-diazinane-2-thione] | 118 ± 13 µM |

same assay, conditions: enzyme 5 U/mL, 100 mM urea, buffer pH 8.2, 30 min pre-incubation at 37 °C, absorbance at 630 nm, triplicate; read-out: Inhibitory activity IC50 against jack bean urease

| Molecule | IC50 |
| --- | --- |
| NC(N)=S [Thiourea] | 22.1 ± 1.4 µM |
| [Dichlorido(imidazolidine-2-thione)(η^6-biphenyl)ruthenium(II)] [Compound 10] | > 600 µM |
| [Dichlorido(imidazolidine-2-thione)(η^6-toluene)ruthenium(II)] [Compound 9] | > 600 µM |
| [Chlorido(η^6-p-cymene)(imidazolidine-2-thione)(triphenylphosphine)ruthenium(II)] hexafluoro-phosphate [Compound 11] | > 600 µM |
| [Chlorido(η^6-p-cymene)(1,3-diazinane-2-thione)(triphenylphosphine)ruthenium(II)] hexafluoro-phosphate [Compound 12] | > 600 µM |
| [Chlorido(η^6-p-cymene)(1H-benzo[d]imidazole-2(3H)-thione)(triphenylphosphine)ruthenium(II)] hexafluorophosphate [Compound 13] | > 600 µM |
| [Dichlorido(1,3-diazinane-2-thione)(η^6-p-cymene)ruthenium(II)] [Compound 7] | > 600 µM |
| [Dichlorido(1H-benzo[d]imidazole-2(3H)-thione)(η^6-p-cymene)ruthenium(II)] [Compound 8] | > 600 µM |

same assay, conditions: jack bean urease; compared to thiourea as positive control

| Molecule | urease inhibitory activity (in words) |
| --- | --- |
| S=C1NCCCN1 [II, 1,3-diazinane-2-thione] | most active in the tested series |

same assay, conditions: jack bean urease; thiourea vs II

| Molecule | fold more active than compound II (IC50 ratio) |
| --- | --- |
| NC(N)=S [Thiourea] | more than 5 times |
